Source: article PMC3138047 (Evidence-based Complementary and Alternative Medicine : eCAM, 2011)

Experiments:
Experiment in all cases: [3H]-dTTP incorporation into poly(dA)/oligo(dT)[…]
Assay type in all cases: biochemical
human pol λ [1] = target: T1, human pol λ (Homo sapiens, UniProt Q9UGP5)
T1 construct: gene POLL; recombinant, His-tagged
T1 sequence (Q9UGP5 1-575): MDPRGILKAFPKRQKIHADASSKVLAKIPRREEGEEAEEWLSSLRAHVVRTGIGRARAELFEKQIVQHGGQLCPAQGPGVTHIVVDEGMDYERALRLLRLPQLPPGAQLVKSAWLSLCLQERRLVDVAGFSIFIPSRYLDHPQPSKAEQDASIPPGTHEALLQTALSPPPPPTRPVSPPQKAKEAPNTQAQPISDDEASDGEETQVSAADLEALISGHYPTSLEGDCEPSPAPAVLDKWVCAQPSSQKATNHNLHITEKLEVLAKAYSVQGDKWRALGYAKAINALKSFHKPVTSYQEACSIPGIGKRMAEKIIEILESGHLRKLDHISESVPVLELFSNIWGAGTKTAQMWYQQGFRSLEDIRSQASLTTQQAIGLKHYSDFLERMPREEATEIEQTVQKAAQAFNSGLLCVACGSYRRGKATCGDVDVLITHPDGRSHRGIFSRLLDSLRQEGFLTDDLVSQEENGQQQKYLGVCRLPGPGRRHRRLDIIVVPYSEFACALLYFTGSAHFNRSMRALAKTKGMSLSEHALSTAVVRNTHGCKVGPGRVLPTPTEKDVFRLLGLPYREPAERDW

human pol γ = target: T2, human pol γ (Homo sapiens, UniProt P54098)
T2 construct: gene POLG
T2 sequence (P54098 1-1239): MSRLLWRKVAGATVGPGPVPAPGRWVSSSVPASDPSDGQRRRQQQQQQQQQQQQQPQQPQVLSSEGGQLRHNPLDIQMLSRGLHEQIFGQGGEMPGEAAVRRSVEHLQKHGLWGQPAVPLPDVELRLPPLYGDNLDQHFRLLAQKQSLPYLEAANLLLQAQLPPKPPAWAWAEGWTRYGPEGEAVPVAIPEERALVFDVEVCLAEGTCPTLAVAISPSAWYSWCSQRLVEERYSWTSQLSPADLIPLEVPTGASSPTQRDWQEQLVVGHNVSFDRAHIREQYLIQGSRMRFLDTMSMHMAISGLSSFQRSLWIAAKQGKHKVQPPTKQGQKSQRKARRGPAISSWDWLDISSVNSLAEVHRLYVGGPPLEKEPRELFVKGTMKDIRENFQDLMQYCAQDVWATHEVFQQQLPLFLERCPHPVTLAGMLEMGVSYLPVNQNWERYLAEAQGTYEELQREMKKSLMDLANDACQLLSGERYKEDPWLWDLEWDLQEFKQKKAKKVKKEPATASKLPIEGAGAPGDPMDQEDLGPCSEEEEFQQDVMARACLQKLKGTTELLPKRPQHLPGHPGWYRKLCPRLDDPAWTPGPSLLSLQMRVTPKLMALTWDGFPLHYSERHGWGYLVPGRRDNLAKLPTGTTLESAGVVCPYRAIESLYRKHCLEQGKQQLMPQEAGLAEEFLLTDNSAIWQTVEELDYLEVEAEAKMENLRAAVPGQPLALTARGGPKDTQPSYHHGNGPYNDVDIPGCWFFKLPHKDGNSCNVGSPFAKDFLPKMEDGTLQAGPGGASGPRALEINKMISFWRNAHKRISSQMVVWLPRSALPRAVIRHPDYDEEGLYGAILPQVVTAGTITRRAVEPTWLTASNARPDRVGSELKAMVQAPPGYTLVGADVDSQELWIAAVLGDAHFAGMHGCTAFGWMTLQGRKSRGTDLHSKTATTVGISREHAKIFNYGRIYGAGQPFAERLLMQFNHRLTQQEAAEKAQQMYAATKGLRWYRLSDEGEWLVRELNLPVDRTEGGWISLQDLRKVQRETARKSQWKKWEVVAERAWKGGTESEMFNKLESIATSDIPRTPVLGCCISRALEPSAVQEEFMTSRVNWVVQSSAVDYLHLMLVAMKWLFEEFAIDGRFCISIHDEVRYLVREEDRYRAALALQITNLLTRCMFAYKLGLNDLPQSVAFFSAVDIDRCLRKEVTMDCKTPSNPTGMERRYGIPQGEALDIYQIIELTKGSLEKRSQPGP

human pol κ [2] = target: T3, human pol κ (Homo sapiens, UniProt Q9UBT6)
T3 construct: gene POLK; truncated, residues 1-560, C-terminal 6xHis tag, produced in E. coli
T3 sequence (Q9UBT6 1-560): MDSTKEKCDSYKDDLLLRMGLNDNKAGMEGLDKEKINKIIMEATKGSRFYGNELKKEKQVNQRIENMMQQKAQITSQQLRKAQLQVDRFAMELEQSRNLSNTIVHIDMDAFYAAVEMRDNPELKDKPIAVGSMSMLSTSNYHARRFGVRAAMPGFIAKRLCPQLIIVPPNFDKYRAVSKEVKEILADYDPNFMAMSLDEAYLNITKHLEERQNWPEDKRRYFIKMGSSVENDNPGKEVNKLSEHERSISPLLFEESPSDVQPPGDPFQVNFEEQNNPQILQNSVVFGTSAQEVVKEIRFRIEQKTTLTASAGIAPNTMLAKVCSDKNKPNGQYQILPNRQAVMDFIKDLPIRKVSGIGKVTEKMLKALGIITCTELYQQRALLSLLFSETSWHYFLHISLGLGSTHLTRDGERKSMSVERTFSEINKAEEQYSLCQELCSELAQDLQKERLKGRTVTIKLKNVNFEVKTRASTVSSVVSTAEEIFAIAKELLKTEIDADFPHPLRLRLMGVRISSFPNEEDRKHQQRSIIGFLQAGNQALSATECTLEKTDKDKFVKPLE

calf pol α = target: T4, calf pol α (Bos taurus, UniProt A0AAA9THK8); settings: read-out: relative pol activity at 100 μM
T4 construct: gene POLA1; with DNA polymerase alpha subunit B; DNA primase small subunit; DNA primase large subunit
T4 sequence (A0AAA9THK8 1-1487): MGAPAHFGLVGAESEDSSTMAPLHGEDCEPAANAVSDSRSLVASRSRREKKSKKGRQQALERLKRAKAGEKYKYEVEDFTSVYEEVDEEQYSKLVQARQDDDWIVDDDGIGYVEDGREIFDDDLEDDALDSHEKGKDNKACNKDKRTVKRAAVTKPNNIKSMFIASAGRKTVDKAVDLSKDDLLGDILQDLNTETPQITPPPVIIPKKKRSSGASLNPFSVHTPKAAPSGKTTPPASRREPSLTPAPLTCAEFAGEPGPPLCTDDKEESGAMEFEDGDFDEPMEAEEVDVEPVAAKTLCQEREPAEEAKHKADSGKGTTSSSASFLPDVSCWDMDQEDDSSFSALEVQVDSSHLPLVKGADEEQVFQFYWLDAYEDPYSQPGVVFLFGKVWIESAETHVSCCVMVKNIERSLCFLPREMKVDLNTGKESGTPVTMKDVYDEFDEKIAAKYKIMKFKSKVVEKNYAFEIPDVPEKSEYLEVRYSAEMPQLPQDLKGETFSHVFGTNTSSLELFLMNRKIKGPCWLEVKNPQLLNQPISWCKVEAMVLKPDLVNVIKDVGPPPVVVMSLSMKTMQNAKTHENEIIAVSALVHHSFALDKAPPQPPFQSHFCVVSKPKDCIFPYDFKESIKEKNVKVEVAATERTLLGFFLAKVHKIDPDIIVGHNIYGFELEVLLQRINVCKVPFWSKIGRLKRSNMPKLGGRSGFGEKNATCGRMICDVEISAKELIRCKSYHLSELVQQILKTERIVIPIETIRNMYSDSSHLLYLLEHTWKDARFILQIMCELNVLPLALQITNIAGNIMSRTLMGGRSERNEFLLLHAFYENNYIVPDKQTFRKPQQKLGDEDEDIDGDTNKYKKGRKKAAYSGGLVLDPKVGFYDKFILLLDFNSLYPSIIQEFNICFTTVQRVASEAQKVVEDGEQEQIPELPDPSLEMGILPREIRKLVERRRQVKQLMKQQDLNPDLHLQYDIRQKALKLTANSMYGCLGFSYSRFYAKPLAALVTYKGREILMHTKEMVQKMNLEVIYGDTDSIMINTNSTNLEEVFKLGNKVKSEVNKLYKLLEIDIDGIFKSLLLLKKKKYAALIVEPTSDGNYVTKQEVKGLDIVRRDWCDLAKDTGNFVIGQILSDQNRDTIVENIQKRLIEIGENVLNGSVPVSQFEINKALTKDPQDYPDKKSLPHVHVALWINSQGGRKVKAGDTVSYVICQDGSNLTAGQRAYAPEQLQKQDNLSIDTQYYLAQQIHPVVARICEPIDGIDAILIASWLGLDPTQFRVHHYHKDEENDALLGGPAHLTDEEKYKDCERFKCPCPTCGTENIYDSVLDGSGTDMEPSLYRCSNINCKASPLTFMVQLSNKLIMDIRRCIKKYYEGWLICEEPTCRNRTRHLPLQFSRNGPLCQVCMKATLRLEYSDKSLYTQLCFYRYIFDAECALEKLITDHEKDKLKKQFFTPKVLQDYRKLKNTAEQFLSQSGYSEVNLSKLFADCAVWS
T4 sequence (Q58D13 whole entry partner): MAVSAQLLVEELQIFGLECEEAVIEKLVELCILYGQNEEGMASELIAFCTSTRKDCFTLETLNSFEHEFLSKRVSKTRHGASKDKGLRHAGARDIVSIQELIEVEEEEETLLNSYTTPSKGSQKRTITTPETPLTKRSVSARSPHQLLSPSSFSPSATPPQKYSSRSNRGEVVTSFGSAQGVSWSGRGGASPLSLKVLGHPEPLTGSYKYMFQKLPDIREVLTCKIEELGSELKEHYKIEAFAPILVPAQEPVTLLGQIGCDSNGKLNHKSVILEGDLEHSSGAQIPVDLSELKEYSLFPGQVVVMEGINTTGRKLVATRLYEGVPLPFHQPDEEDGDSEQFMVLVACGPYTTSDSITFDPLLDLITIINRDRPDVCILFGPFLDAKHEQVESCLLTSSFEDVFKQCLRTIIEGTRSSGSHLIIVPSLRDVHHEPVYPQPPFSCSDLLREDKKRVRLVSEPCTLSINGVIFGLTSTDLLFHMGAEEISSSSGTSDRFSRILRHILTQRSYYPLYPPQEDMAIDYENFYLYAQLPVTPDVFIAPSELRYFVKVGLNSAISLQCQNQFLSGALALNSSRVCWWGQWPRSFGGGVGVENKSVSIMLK
T4 sequence (A0A3Q1MF00 1-418 partner): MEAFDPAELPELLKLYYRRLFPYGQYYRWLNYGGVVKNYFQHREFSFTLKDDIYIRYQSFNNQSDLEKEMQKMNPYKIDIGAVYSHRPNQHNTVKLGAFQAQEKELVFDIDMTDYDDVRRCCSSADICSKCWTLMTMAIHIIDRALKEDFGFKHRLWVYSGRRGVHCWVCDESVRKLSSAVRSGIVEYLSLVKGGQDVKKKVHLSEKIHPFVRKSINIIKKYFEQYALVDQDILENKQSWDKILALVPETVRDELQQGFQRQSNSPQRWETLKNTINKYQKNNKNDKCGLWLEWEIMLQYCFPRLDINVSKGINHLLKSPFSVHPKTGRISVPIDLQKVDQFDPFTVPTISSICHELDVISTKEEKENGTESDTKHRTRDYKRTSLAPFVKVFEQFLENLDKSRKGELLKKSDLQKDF
T4 sequence (A0JNF4 1-506 partner): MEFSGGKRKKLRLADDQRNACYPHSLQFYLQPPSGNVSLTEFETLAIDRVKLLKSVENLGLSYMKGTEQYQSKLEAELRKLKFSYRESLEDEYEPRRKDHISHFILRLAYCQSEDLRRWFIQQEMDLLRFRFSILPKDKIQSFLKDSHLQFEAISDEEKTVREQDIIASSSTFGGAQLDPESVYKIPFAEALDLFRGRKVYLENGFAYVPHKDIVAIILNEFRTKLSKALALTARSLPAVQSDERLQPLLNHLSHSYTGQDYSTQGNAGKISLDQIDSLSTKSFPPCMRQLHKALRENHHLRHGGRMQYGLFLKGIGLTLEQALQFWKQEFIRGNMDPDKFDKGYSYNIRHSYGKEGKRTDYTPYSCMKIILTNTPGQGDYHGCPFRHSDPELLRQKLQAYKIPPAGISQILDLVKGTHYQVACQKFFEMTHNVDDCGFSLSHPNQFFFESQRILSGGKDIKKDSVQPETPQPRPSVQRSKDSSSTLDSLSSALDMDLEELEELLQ

human pol κ [3] = target: T3, human pol κ; settings: read-out: relative pol activity at 100 μM
human pol λ [4] = target: T1, human pol λ; settings: read-out: relative pol activity at 100 μM

IC50 (human pol λ [1]) | IC50 (human pol γ) | IC50 (human pol κ [2]) | activity at 100 µM (calf pol α) | activity at 100 µM (human pol κ [3]) | activity at 100 µM (human pol λ [4]) | Structure (SMILES)
13.7 µM | 19.3 µM | 15.8 µM | – | – | – | CC1(C)[C@@H](O)CC[C@]2(C)[C@H]3C(=O)C=C4[C@@H]5C[C@@](C)(C(=O)O)CC[C@]5(C)CC[C@@]4(C)[C@]3(C)CC[C@@H]12 [compound 3, Glycyrrhetinic acid]
– | – | – | < 50% | < 50% | < 50% | CC1(C)[C@@H](O[C@H]2O[C@H](C(=O)O)[C@@H](O)[C@H](O)[C@H]2O[C@@H]2O[C@H](C(=O)O)[C@@H](O)[C@H](O)[C@H]2O)CC[C@]2(C)[C@H]3C(=O)C=C4[C@@H]5C[C@@](C)(C(=O)O)CC[C@]5(C)CC[C@@]4(C)[C@]3(C)CC[C@@H]12 [compound 1, 3-O-(2-O-β-D-glucopyranuronosyl-α-D-glucopyranuronosyl)-18β-glycyrrhetinic acid]
– | – | – | < 50% | – | < 50% | CC1(C)[C@@H](O[C@@H]2O[C@H](C(=O)O)[C@@H](O)[C@H](O)[C@H]2O[C@@H]2O[C@H](C(=O)O)[C@@H](O)[C@H](O)[C@H]2O)CC[C@]2(C)[C@H]3C(=O)C=C4[C@@H]5C[C@@](C)(C(=O)O)CC[C@]5(C)CC[C@@]4(C)[C@]3(C)CC[C@@H]12 [compound 2, dipotassium glycyrrhizate]
